Experimental findings from patent US9795596B2, “Pharmaceutical diagnostic” (Novartis AG, priority 2012, dated 2017) are described below.

Common to all, as to format: biochemical, bovine
The target of experiment [1] is T1, PI3Kα Q859A mutant (Bos taurus, UniProt P32871, Q859A).
T1 construct: His; made in house; host or cells: Sf9 insect cells (baculovirus co-infection)
Nature of the experiment: Enzymatic HTRF assay, PI3Kα Q859A mutant. The procedure: (§1) Mutagenesis to generate PI3Kα (p110α) mutant Q859A is performed with the QuikChange II Site-Directed Mutagenesis kit (Stratagene (cat. no 200523) and the oligonucleotides
(§2) The Phosphoinositide 3-kinase (PI3-Kinase or PI3K) Homogenous Time-Resolved (HTRF®) assay kit is purchased from Upstate (now Millipore Corporation, Billerica, Mass., USA). PIP2 and PiP3 is purchased from Avanti Polar Lipids (Alabaster, Ala., USA), microplates from Greiner (Frickenhausen, Germany; Catalog No. 781207). All other reagents are purchased from Sigma (St Louis, Mo., USA).
(§3) The enzymatic Homogenous Time-Resolved Fluorescense (HTRF®) assay (from Upstate (now Millipore Corporation, Billerica, Mass., USA) is performed essentially as described by Sugita et al. (2008), Biochem. Biophys. Res. Commun 377(3):941-5. PI3Kα (0.25-1.5 ng) is incubated for 60 minutes at room temperature in 20 μl buffer containing 10 mM MgCl2, 30 μM ATP, 20 μM 1,2-dioctanoyl-sn-glycero-3-phospho-(1′-myo-inositol-4′,5′-bisphosphate) (ammonium salt) (PIP2), 150 mM NaCl, 5 mM (dl-Dithiothreitol) DTT, and 25 mM Tris/HCl (pH 7.5) in 384-well white plates. The kinase reaction is initiated by adding ATP (30 μM) for inhibition studies and by adding PI3Kα for ATP kinetics (0-200 μM ATP).
(§4) PI3K inhibitor (S)-Pyrrolidine-1,2-dicarboxylic acid 2-amide 1-({4-methyl-5-[2-(2,2,2-trifluoro-1,1-dimethyl-ethyl)-pyridin-4-yl]-thiazol-2-yl}-amide) (hereinafter “Compound I”) is diluted successively in Dimethyl sulfoxide (DMSO) and in buffer (final concentration: 2.5% DMSO). The kinase reaction is stopped by addition of the HTRF reagents according to manufacturer's instructions. […] The plate is read using Tecan's GeniosPro® multilabel reader (from Tecan Group Ltd., Männedorf, Switzerland) in time-resolved fluorescence mode (Excitation filter: 340 nm; Emission filter 1: 620 nm; Emission filter 2: 665 nm; Mirror: dichroic2; Lag time: 150 μs; Integration time: 500 μs; 10 flashes).
(§5) The HTRF signal is determined according to the formula: HTRF signal=10000×(emission at 665 nm/emission at 620 nm). […]
On the technique in general: TR-FRET usually uses a lanthanide donor and a delayed reading to cut background.

In the next experiment the target is T2, PI3Kα wildtype (wt) (Bos taurus, UniProt P32871).
T2 construct: His; made in house; host or cells: Sf9 insect cells (baculovirus co-infection)
Nature of the experiment: Enzymatic HTRF assay, PI3Kα wild-type.
Excerpt: The Phosphoinositide 3-kinase (PI3-Kinase or PI3K) Homogenous Time-Resolved (HTRF®) assay kit is purchased from Upstate (now Millipore Corporation, Billerica, Mass., USA). PIP2 and PiP3 is purchased from Avanti Polar Lipids (Alabaster, Ala., USA), microplates from Greiner (Frickenhausen, Germany; Catalog No. 781207). All other reagents are purchased from Sigma (St Louis, Mo., USA). […]
PI3K inhibitor (S)-Pyrrolidine-1,2-dicarboxylic acid 2-amide 1-({4-methyl-5-[2-(2,2,2-trifluoro-1,1-dimethyl-ethyl)-pyridin-4-yl]-thiazol-2-yl}-amide) (hereinafter “Compound I”) is diluted successively in Dimethyl sulfoxide (DMSO) and in buffer (final concentration: 2.5% DMSO). […] The plate is read using Tecan's GeniosPro® multilabel reader (from Tecan Group Ltd., Männedorf, Switzerland) in time-resolved fluorescence mode (Excitation filter: 340 nm; Emission filter 1: 620 nm; Emission filter 2: 665 nm; Mirror: dichroic2; Lag time: 150 μs; Integration time: 500 μs; 10 flashes).
as §5

In experiment [2] the test system is PI3Kα Q859A mutant. Nature of the experiment: Enzymatic HTRF assay, PI3Kα Q859A mutant. The settings on record: IC50 Q859A / IC50 wildtype. How it is done:
as §1, §2, §3, §4, §5

T2 sequence (P32871 whole entry): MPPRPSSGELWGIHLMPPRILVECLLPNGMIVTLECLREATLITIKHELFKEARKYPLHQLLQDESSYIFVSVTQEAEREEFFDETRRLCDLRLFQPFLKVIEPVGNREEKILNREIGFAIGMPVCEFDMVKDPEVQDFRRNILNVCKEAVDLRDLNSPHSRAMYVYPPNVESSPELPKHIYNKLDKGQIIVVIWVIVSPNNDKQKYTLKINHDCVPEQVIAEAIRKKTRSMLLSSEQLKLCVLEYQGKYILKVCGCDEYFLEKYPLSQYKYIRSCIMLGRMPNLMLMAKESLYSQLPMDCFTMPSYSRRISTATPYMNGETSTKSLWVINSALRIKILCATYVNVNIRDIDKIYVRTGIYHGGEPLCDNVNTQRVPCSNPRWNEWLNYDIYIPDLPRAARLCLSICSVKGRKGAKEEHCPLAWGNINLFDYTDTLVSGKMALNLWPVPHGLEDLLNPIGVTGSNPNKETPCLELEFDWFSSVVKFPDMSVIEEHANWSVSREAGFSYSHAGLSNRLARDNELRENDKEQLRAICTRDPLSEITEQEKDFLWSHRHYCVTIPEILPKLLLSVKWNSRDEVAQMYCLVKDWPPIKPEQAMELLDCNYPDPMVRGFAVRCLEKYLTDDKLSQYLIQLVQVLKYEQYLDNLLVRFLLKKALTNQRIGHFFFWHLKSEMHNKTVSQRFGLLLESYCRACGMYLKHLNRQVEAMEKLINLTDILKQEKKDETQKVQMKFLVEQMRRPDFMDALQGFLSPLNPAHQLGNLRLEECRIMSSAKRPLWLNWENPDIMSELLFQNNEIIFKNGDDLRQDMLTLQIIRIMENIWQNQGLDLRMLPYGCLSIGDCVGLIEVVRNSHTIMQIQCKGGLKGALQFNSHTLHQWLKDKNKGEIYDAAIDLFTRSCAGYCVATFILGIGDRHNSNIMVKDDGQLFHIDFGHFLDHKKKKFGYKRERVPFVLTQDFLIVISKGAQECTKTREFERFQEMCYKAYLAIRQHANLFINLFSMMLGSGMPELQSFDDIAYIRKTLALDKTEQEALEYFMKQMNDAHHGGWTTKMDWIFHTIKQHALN
T2 sequence (P27986 whole entry partner): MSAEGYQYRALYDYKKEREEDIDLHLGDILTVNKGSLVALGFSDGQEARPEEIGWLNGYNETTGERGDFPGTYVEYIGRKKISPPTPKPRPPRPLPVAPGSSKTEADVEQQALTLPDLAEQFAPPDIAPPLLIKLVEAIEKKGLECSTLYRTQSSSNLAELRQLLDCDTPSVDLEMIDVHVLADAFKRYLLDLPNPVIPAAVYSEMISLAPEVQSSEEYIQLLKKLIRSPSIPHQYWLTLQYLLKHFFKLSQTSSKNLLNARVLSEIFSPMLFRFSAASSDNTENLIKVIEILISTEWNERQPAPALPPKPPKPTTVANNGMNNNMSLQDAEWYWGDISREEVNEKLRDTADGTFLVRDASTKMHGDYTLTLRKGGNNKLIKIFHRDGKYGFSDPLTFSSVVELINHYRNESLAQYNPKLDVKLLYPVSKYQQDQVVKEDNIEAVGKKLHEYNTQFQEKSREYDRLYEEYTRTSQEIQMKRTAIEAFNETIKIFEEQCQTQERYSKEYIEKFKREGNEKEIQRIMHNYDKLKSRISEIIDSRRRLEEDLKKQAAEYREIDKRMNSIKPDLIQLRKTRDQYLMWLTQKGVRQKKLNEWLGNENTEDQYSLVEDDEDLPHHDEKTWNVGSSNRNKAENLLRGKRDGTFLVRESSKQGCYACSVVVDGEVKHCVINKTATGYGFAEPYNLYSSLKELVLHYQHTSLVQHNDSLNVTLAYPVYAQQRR
T1 sequence (P32871 whole entry Q859A): as the sequence (P32871 whole entry) above, with Q859A counted along it
T1 sequence (P27986 whole entry partner): as the sequence (P27986 whole entry partner) above

For the compound `Nc1ncnc2c1ncn2[C@@H]1O[C@H](COP(=O)(O)OP(=O)(O)OP(=O)(O)O)[C@@H](O)[C@H]1O` [ATP, reference compound], the Km (as a rule, the concentration of substrate that gives half-maximal velocity) on PI3Kα Q859A mutant [1] (PI3Kα Q859A mutant, 0-200 μM ATP, mean ± S.E. of 5 experiments, read-out: Michaelis constant (Km), ATP activation kinetics) was determined as 72 ± 8 µM; on PI3Kα wildtype (wt) (PI3K wild-type, 0-200 μM ATP, mean ± S.E. of 14 experiments, read-out: Michaelis constant (Km), ATP activation kinetics) it was 60 ± 6 µM.
Take `Cc1nc(NC(=O)N2CCC[C@H]2C(N)=O)sc1-c1ccnc(C(C)(C)C(F)(F)F)c1` [Compound I, (S)-Pyrrolidine-1,2-dicarboxylic acid 2-amide 1-({4-methyl-5-[2-(2,2,2-trifluoro-1,1-dimethyl-ethyl)-pyridin-4-yl]-thiazol-2-yl}-amide)]: the IC50 (as a rule, the midpoint of a concentration-inhibition curve) turned out to be 122 ± 28 nM at PI3Kα Q859A mutant [1] (PI3Kα Q859A mutant p110α/p85α, 30 μM ATP, 20 μM PIP2, 60 min, mean ± S.E. of 7 experiments) and 8.4 ± 1 nM against PI3Kα wildtype (wt) (PI3Kα wild-type p110α/p85α, 30 μM ATP, 20 μM PIP2, 60 min, mean ± S.E. of 10 experiments). Further, in the experiment with PI3Kα Q859A mutant [2], the “fold increase in the IC50, Q859A mutant versus wildtype” value is listed as 14.5 fold.
